Data from PMC5943959, “Potent and Selective Carboxylic Acid Inhibitors of Tumor-Associated Carbonic Anhydrases IX and XII” (Molecules : A Journal of Synthetic Chemistry and Natural …, 2017).
Like-named read-outs stand apart in the source and are kept apart here.

Legend:
Format in all cases: biochemical
hCA XII = molecular target: T1, hCA XII (Homo sapiens, UniProt O43570); assay: stopped-flow CO2 hydrase assay, hCA XII; conditions: for Selectivity Index hCA II/hCA XII: ratio of Ki values
T1 construct: made in house

hCA I = molecular target: T2, hCA I (Homo sapiens, UniProt P00915); assay: stopped-flow CO2 hydrase assay, hCA I
T2 construct: made in house

hCA II = molecular target: T3, hCA II (Homo sapiens, UniProt P00918); assay: stopped-flow CO2 hydrase assay, hCA II
T3 construct: made in house

hCA IX = molecular target: T4, hCA IX (Homo sapiens, UniProt Q16790); assay: stopped-flow CO2 hydrase assay, hCA IX; conditions: for Selectivity Index hCA II/hCA IX: ratio of Ki values; for Ki: recombinant enzyme, errors ± 5–10%, 3 assays
T4 construct: made in house

hCA VA = molecular target: T5, hCA VA (Homo sapiens, UniProt P35218); assay: stopped-flow CO2 hydrase assay, hCA VA
T5 construct: made in house

hCA VII = molecular target: T6, hCA VII (Homo sapiens, UniProt P43166); assay: stopped-flow CO2 hydrase assay, hCA VII
T6 construct: made in house

hCA IV = molecular target: T7, hCA IV (Homo sapiens, UniProt P22748); assay: stopped-flow CO2 hydrase assay, hCA IV
T7 construct: made in house

[1] = recombinant enzyme, errors ± 5–10%, 3 assays, read-out: Ki hCA XII
[2] = recombinant enzyme, errors ± 5–10%, 3 assays, read-out: Ki hCA I
[3] = recombinant enzyme, errors ± 5–10%, 3 assays, read-out: Ki hCA II
[4] = recombinant enzyme, errors ± 5–10%, 3 assays, read-out: Ki hCA VA
[5] = recombinant enzyme, errors ± 5–10%, 3 assays, read-out: Ki hCA VII
[6] = recombinant enzyme, errors ± 5–10%, 3 assays, read-out: Ki hCA IV

T6 sequence (P43166 whole entry): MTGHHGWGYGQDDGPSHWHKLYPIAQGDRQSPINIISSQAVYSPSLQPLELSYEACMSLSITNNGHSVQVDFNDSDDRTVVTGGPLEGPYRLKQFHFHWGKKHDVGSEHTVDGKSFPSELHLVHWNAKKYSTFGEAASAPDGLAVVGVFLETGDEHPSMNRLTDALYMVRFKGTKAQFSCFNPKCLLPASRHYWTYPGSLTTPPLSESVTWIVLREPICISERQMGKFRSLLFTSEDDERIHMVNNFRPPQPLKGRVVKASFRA
T7 sequence (P22748 19-312): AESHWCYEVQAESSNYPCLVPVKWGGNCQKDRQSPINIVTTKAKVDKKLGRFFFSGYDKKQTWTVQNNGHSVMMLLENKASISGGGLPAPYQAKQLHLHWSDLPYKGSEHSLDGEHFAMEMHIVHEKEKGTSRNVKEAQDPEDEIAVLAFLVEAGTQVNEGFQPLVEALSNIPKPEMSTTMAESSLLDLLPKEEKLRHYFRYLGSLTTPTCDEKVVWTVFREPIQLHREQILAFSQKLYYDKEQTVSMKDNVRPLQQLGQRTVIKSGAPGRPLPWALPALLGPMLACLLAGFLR
T1 sequence (O43570 25-354): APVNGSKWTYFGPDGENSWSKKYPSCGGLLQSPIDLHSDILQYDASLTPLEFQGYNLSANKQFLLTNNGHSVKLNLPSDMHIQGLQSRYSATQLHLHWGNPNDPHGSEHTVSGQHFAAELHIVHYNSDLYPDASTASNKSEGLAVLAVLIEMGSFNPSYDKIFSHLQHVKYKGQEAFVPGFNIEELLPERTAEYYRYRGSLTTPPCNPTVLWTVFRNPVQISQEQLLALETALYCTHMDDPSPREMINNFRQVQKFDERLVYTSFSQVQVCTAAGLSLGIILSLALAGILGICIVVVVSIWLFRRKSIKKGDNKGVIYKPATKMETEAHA
T2 sequence (P00915 whole entry): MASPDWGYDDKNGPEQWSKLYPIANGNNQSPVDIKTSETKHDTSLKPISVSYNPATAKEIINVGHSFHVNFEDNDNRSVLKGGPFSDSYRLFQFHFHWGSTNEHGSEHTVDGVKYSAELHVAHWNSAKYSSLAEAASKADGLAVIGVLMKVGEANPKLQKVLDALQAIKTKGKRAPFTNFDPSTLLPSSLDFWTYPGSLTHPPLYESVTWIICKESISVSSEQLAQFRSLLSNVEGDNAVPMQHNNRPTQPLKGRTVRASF
T5 sequence (P35218 39-305): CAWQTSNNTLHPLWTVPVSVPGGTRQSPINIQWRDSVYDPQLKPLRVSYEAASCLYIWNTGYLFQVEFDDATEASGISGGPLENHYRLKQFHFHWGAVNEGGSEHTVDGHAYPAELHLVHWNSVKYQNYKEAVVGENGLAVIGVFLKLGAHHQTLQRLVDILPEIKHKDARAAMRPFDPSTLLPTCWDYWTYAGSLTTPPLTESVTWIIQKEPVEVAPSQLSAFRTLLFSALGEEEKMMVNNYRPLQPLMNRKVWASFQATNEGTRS

Structure (SMILES)	Selectivity Index hCA II/hCA XII (hCA XII)	Ki (hCA XII; [1]) [µM]	Ki (hCA I; [2]) [µM]	Ki (hCA II; [3]) [µM]	Selectivity Index hCA II/hCA IX (hCA IX)	Ki (hCA IX) [µM]	Ki (hCA VA; [4]) [µM]	Ki (hCA VII; [5]) [µM]	Ki (hCA IV; [6]) [µM]	Ki (hCA I) [µM]	Ki (hCA XII) [µM]	Ki (hCA II) [µM]	Ki (hCA VA) [µM]	Ki (hCA VII) [µM]	hCA VII inhibition (in words) (hCA VII)	Ki (hCA IV) [µM]	hCA XII inhibition (in words) (hCA XII)	Ki against hCA II, fold higher than that of AAZ (hCA II; relative to AAZ)	Ki against hCA II, fold higher than that of GV2-20 (hCA II; relative to GV2-20)	drop of inhibitory potency against hCA VII compared to GV2-20 (hCA VII; relative to GV2-20)
O=C(O)c1ccc(Sc2nnnn2-c2ccccc2)c([N+](=O)[O-])c1 [Compound 17]	>113.4	0.441	> 50	> 50	>2136.8	0.0234	0.739	> 50	3.56	–	–	–	–	–	–	–	–	–	–	–
CC(=O)Nc1cccc(Nc2c([N+](=O)[O-])cc(C(=O)O)cc2[N+](=O)[O-])c1 [Compound 12]	–	0.0919	–	> 50	–	0.082	0.144	> 50	> 50	> 50	–	–	–	–	–	–	–	–	–	–
O=C(O)c1ccc(Sc2nnc(Sc3ccc(C(=O)O)cc3[N+](=O)[O-])s2)c([N+](=O)[O-])c1 [Compound 8]	–	–	–	–	–	0.0263	–	–	–	6.45	0.912	0.801	> 50	> 50	inactive	8.8	–	–	–	–
CCOC(=O)C1CCN(c2ccc(C(=O)O)cc2[N+](=O)[O-])CC1 [Compound 6]	–	> 50	–	8.05	263.1	0.0306	–	> 50	> 50	8.21	–	–	> 50	–	–	–	not active	–	–	–
O=C(O)c1ccc(Sc2ccccc2C(=O)O)c([N+](=O)[O-])c1 [Compound 4]	–	> 50	–	2.63	15.3	0.172	–	> 50	> 50	6.02	–	–	> 50	–	–	–	–	–	–	–
O=C(Cc1ccccc1)Nc1ccc(C(=O)O)cc1 [Compound 18]	12.1	0.629	2.73	7.63	104.8	0.0728	0.262	> 50	> 50	–	–	–	–	–	–	–	–	–	–	–
CS(=O)(=O)c1ccc(C(=O)O)cc1[N+](=O)[O-] [Compound 7]	–	> 50	–	7.31	264.9	0.0276	–	> 50	> 50	> 50	–	–	1.46	–	–	–	not active	–	–	–
CC1OC(Nc2cc(C(=O)O)cc([N+](=O)[O-])c2)C(O)C(O)C1O (centres unmarked) [Compound 2]	–	> 50	–	7.24	68.3	0.106	–	> 50	> 50	5.65	–	–	1.35	–	–	–	–	–	–	–
N#Cc1ccc(NCCc2ccccc2)c([N+](=O)[O-])c1 [Compound 19]	–	0.648	–	> 50	>632.1	0.0791	0.0925	> 50	> 50	> 50	–	–	–	–	inactive	–	–	–	–	–
Cc1cc(C(=O)Nc2cc(C(=O)O)cc([N+](=O)[O-])c2)no1 [Compound 9]	11.3	0.753	–	8.5	51.5	0.165	–	0.762	8.27	> 50	–	–	> 50	–	–	–	–	–	–	–
CC1=NN(c2ccc(C)cc2)C(=O)/C1=C/Nc1ccc(C(=O)O)cc1[N+](=O)[O-] [Compound 16]	>142.0	0.352	–	> 50	>1661.1	0.0301	0.154	1.73	6.03	> 50	–	–	–	–	–	–	–	–	–	–
Cc1ccc(S(=O)(=O)c2ccc(C(=O)O)cc2[N+](=O)[O-])cc1 [Compound 11]	>64.3	0.778	–	> 50	>857.6	0.0583	0.356	> 50	> 50	> 50	–	–	–	–	–	–	–	–	–	–
O=C(O)c1ccc(N2CCc3ccccc32)c([N+](=O)[O-])c1 [Compound 3]	–	> 50	> 50	7.3	34.9	0.209	1.31	0.84	> 50	–	–	–	–	–	–	–	–	–	–	–
CC(C)(C)OC(=O)N1CCC(Nc2ccc(C(=O)O)cc2[N+](=O)[O-])CC1 [Compound 15]	>69.1	0.724	–	> 50	>2024.3	0.0247	0.11	> 50	9.2	> 50	–	–	–	–	–	–	–	–	–	–
O=C(O)c1ccc(Sc2nnc(-c3cccc(Br)c3)o2)c([N+](=O)[O-])c1 [Compound 1]	23.99	0.0273	0.7	0.655	11.88	0.0551	0.826	0.325	5.09	–	–	–	–	–	–	–	–	around 54 fold	around 10 fold	around 37 fold
O=C(O)c1ccc(NCc2cccnc2)c([N+](=O)[O-])c1 [Compound 13]	>79.0	0.633	> 50	> 50	>471.7	0.106	0.117	> 50	> 50	–	–	–	–	–	inactive	–	–	–	–	–
O=C(CSc1nnc(-c2ccncc2)s1)Nc1cc(C(=O)O)cc([N+](=O)[O-])c1 [Compound 14]	>103.7	0.482	–	> 50	>2174.0	0.023	0.449	> 50	> 50	> 50	–	–	–	–	–	–	–	–	–	–
O=C(O)c1ccc(NCCc2ccc(Cl)cc2)c([N+](=O)[O-])c1 [Compound 5]	>57.9	0.863	–	> 50	>326.8	0.153	1.16	> 50	> 50	8.15	–	–	–	–	inactive	–	–	–	–	–
O=C(O)c1ccc(Sc2ccccn2)c([N+](=O)[O-])c1 [Compound 10]	>609.01	0.0821	6.65	> 50	>3125	0.016	0.142	0.665	> 50	–	–	–	–	–	–	–	–	–	–	–
